Source: patent US9580449B2, “Compositions and methods for the production of pyrimidine and pyridine compounds with BTK inhibitory activity” (Merck Patent GmbH, priority 2011, dated 2017)

Target: full-length human BTK (Homo sapiens (Human), UniProt Q06187)
Assay: BTK IC50 enzyme assay (microfluidic off-chip mobility shift kinase assay)
Type: biochemical
Details: incubated for 90 min. at 27 C; read-out: Time Dependent BTK Enzyme Assay IC50
How it was run: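 Read-out separates phosphorylated peptide product from substrate by charge/mass in a mobility shift format with full-length human BTK.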

Chain of full-length human BTK (Q06187 whole entry): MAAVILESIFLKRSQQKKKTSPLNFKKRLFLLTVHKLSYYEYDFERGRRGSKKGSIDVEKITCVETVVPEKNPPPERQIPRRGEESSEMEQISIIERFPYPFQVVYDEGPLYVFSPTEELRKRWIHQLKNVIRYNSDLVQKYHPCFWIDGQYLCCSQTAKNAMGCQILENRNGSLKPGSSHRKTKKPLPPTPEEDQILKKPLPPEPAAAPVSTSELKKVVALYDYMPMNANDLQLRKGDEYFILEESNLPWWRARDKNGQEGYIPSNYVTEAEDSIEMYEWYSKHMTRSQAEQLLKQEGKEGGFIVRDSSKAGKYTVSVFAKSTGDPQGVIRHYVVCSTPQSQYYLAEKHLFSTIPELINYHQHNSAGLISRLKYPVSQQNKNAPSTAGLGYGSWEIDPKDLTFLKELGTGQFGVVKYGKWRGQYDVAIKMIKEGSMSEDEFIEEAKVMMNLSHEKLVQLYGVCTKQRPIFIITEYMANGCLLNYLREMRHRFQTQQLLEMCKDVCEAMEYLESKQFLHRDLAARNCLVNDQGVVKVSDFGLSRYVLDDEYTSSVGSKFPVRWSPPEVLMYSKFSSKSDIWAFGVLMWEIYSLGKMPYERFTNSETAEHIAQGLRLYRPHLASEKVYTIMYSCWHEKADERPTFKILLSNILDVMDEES

IC50 [µM]	Compound
< 1	C=CC(=O)N1CCO[C@@H](COc2ncnc(N)c2-c2cnn(Cc3ccccc3)c2)C1 [A192, (R)-1-(2-(((6-amino-5-(1-benzyl-1H-pyrazol-4-yl)pyrimidin-4-yl)oxy)methyl)morpholino)prop-2-en-1-one]
< 1	C=CC(=O)N1CCC2(CCN(c3ncnc(N)c3-c3ccc(Oc4ccccc4)cc3)CC2)C1 [A92, 1-(8-(6-amino-5-(4-phenoxyphenyl)pyrimidin-4-yl)-2,8-diazaspiro[4.5]decan-2-yl)prop-2-en-1-one]
< 1	Nc1ncnc(NCC2CCN(C(=O)/C=C/CN3CCCC3)CC2)c1-c1ccc(Oc2ccccc2)cc1 [A220, (E)-1-(4-(((6-amino-5-(4-phenoxyphenyl)pyrimidin-4-yl)amino)methyl)piperidin-1-yl)-4-(pyrrolidin-1-yl)but-2-en-1-one]
< 0.1	C=CC(=O)N1CCC=C(c2c(N)ncnc2Nc2ccc(Oc3ccccc3)cc2)C1 [A273, 1-(3-(4-amino-6-((4-phenoxyphenyl)amino)pyrimidin-5-yl)-5,6-dihydropyridin-1(2H)-yl)prop-2-en-1-one]
> 1	Nc1ncnc(NCC2CCN(c3cccc(Cl)n3)CC2)c1-c1ccc(Oc2ccccc2)cc1 [A337, N4-((1-(6-chloropyridin-2-yl)piperidin-4-yl)methyl)-5-(4-phenoxyphenyl)pyrimidine-4,6-diamine]
< 0.1	C=CC(=O)Nc1cccc(Oc2ncnc(N)c2-c2ccc(C(C)(C)O)cc2)c1 [A278, N-(3-((6-amino-5-(4-(2-hydroxypropan-2-yl)phenyl)pyrimidin-4-yl)oxy)phenyl)acrylamide]
< 1	C=CC(=O)N1CCC(CNc2ncnc(N)c2-c2ccc(OC3CCCCC3)cc2)CC1 [A99, 1-(4-(((6-amino-5-(4-(cyclohexyloxy)phenyl)pyrimidin-4-yl)amino)methyl)piperidin-1-yl)prop-2-en-1-one]
> 1	C/C=C/C(=O)N1CCC(CNc2ncnc(N)c2-c2ccc(Oc3ccccc3)cc2)CC1 [A13, (E)-1-(4-(((6-amino-5-(4-phenoxyphenyl)pyrimidin-4-yl)amino)methyl)piperidin-1-yl)but-2-en-1-one]
> 1	C=CC(=O)N1CCC(Nc2ncnc(N)c2-c2ccc(Oc3ccccc3)cc2)CC12CCC2 (stereo not shown) [A125, 1-(8-((6-amino-5-(4-phenoxyphenyl)pyrimidin-4-yl)amino)-5-azaspiro[3.5]nonan-5-yl)prop-2-en-1-one]
> 1	C=CC(=O)Nc1cccc(Oc2ncnc(N)c2-c2cccc(OC(F)(F)F)c2)c1 [A164, N-(3-((6-amino-5-(3-(trifluoromethoxy)phenyl)pyrimidin-4-yl)oxy)phenyl)acrylamide]
< 0.1	Nc1ncnc(OC2CC3(C2)CN(C(=O)/C=C/CN2CC(F)C2)C3)c1-c1ccc(Oc2ccccc2)cc1 [A222, (E)-1-(6-((6-amino-5-(4-phenoxyphenyl)pyrimidin-4-yl)oxy)-2-azaspiro[3.3]heptan-2-yl)-4-(3-fluoroazetidin-1-yl)but-2-en-1-one]
< 0.1	C=CC(=O)N1CCCC(COc2ncnc(N)c2-c2ccc(Oc3ccccc3)cc2)C1 (stereo not shown) [A17, 1-(3-(((6-amino-5-(4-phenoxyphenyl)pyrimidin-4-yl)oxy)methyl)piperidin-1-yl)prop-2-en-1-one]
< 0.1	CC#CC(=O)N1CCC(COc2ncnc(N)c2-c2ccc(Oc3ccccc3)cc2)CC1 [A9, 1-(4-(((6-amino-5-(4-phenoxyphenyl)pyrimidin-4-yl)oxy)methyl)piperidin-1-yl)but-2-yn-1-one]
< 1	C=CC(=O)N1CCC[C@@H](Nc2ncnc(N)c2-c2cnn(Cc3ccccc3)c2)C1 [A180, (R)-1-(3-((6-amino-5-(1-benzyl-1H-pyrazol-4-yl)pyrimidin-4-yl)amino)piperidin-1-yl)prop-2-en-1-one]
< 0.1	C=CC(=O)Nc1cncc(Oc2ncnc(N)c2-c2cnn(Cc3ccccc3)c2)c1 [A189, N-(5-((6-amino-5-(1-benzyl-1H-pyrazol-4-yl)pyrimidin-4-yl)oxy)pyridin-3-yl)acrylamide]
< 0.1	C=CC(=O)N1CCC(CNc2ncnc(N)c2-c2ccc(Oc3ccc(C)cc3)cc2)CC1 [A98]
> 1	C=CC(=O)NC1CC2(C1)CC(Nc1ncnc(N)c1-c1ccc(Oc3ccccc3)cc1)C2 (stereo not shown) [A122, N-(6-((6-amino-5-(4-phenoxyphenyl)pyrimidin-4-v)amino)spiro[3.3]heptan-2-yl)acrylamide]
< 1	C=CC(=O)Nc1cccc(Oc2ncnc(N)c2-c2ccc(Oc3ccc(F)cc3)nc2)c1 [A166, N-(3-((6-amino-5-(6-(4-fluorophenoxy)pyridin-3-yl)pyrimidin-4-yl)oxy)phenyl)acrylamide]
< 1	CN(C)C/C=C/C(=O)N1CCC(CNc2ncnc(N)c2-c2ccc(Oc3ccccc3)cc2)(C(=O)O)CC1 [A217, (E)-4-(((6-amino-5-(4-phenoxyphenyl)pyrimidin-4-yl)amino)methyl)-1-(4-(dimethylamino)but-2-enoyl)piperidine-4-carboxylic acid]

IC50 [µM]	Compound
< 0.1	CC#CC(=O)N1CC[C@@H](CNc2ncnc(N)c2-c2ccc(Oc3ccccc3)cc2)[C@H](O)C1 [A215, 1-((3S,4S)-4-(((6-amino-5-(4-phenoxyphenyl)pyrimidin-4-yl)amino)methyl)-3-hydroxypiperidin-1-yl)but-2-yn-1-one]
> 1	NCc1ccc(-c2cnccc2Oc2ccc(Oc3ccccc3)cc2)cc1 [A315, (4-(4-(4-phenoxyphenoxy)pyridin-3-yl)phenyl)methanamine]
< 0.1	C=CC(=O)Nc1cccc(Oc2ncnc(N)c2-c2cnn(Cc3cccc(C#N)c3)c2)c1 [A203, N-(3-((6-amino-5-(1-(3-cyanobenzyl)-1H-pyrazol-4-yl)pyrimidin-4-yl)oxy)phenyl)acrylamide]
< 1	CN(C)C/C=C/C(=O)Nc1ccc(Oc2ncnc(N)c2-c2ccc(Oc3ccccc3)cc2)cc1 [A290, (E)-N-(4-((6-amino-5-(4-phenoxyphenyl)pyrimidin-4-yl)oxy)phenyl)-4-(dimethylamino)but-2-enamide]
< 0.1	CC=CC(=O)[C@H]1CCC[C@H](Nc2ncnc(N)c2-c2ccc(Oc3ccccc3)cc2)C1 [A144, 1-((1S,3S)-3-(6-Amino-5-(4-phenoxyphenyl)-pyrimidin-4-ylamino)-cyclohexyl)-but-2-en-1-one]
> 1	C=CC(=O)NC1(CNc2ncnc(N)c2-c2ccc(Oc3ccccc3)cc2)CCCC1 [A20, N-(1-(((6-amino-5-(4-phenoxyphenyl)pyrimidin-4-yl)amino)methyl)cyclopentyl)acrylamide]
> 1	C=CC(=O)N1CCC(CNc2ncnc(N)c2-c2ccc3c(c2)OCCO3)CC1 [A84, 1-(4-(((6-amino-5-(2,3-dihydrobenzo[b][1,4]dioxin-6-yl)pyrimidin-4-yl)amino)methyl)piperidin-1-yl)prop-2-en-1-one]
> 1	Nc1cccc(-c2c(N)ncnc2Oc2ccc(Oc3ccccc3)cc2)c1 [A317, 5-(3-aminophenyl)-6-(4-phenoxyphenoxy)pyrimidin-4-amine]
< 0.1	Nc1ncnc(Oc2cccc(NC(=O)CCl)c2)c1-c1ccc(OCc2ccccc2)cc1F [A350, N-{3-(6-Amino-5-(4-benzyloxy-2-fluoro-phenyl)-pyrimidin-4-yloxy}-phenyl)-2-chloro-acetamide]
< 0.1	C=CC(=O)Nc1cccc(Oc2ccncc2-c2ccc(Oc3ccccc3)cc2)c1 [A270, N-(3-((3-(4-phenoxyphenyl)pyridin-4-yl)oxy)phenyl)acrylamide]
< 1	Nc1ncnc(OC2CC3(C2)CN(C(=O)/C=C/CN2CC(F)(F)C2)C3)c1-c1ccc(Oc2ccccc2)cc1 [A223, (E)-1-(6-((6-amino-5-(4-phenoxyphenyl)pyrimidin-4-yl)oxy)-2-azaspiro[3.3]heptan-2-yl)-4-(3,3-difluoroazetidin-1-yl)but-2-en-1-one]
> 1	CCC(=O)Nc1cccc(-c2c(Oc3ccc(Oc4ccccc4)cc3)ccnc2N)c1 [A310, N-(3-(2-amino-4-(4-phenoxyphenoxy)pyridin-3-yl)phenyl)propionamide]
< 0.1	C=CC(=O)[C@H]1CCC[C@H](Nc2ncnc(N)c2-c2ccc(Oc3ccccc3)cc2)C1 [A143, 1-((1S,3S)-3-(6-Amino-5-(4-phenoxyphenyl)-pyrimidin-4-ylamino)-cyclohexyl)-propenone]
> 1	C=CC(=O)NCc1cccc(-c2cnccc2Oc2ccc(Oc3ccccc3)cc2)c1 [A302, N-(3-(4-(4-phenoxyphenoxy)pyridin-3-yl)benzyl)acrylamide]
< 0.1	C=CC(=O)N1CCC(CNc2ncnc(N)c2-c2ccc(Oc3ccccc3)cc2)(C(=O)O)CC1 [A216, 1-acryloyl-4-(((6-amino-5-(4-phenoxyphenyl)pyrimidin-4-yl)amino)methyl)piperidine-4-carboxylic acid]
< 1	C=CC(=O)NCCCCNc1ncnc(N)c1-c1ccc(Oc2ccccc2)cc1 [A50, N-(4-((6-amino-5-(4-phenoxyphenyl)pyrimidin-4-yl)amino)butyl)acrylamide]
< 1	C=CC(=O)N1CCC(COc2ncnc(N)c2-c2ccc(Oc3ccccc3)cc2)CC1 [A338, 1-(4-(((6-amino-5-(4-phenoxyphenyl)pyrimidin-4-yl)oxy)methyl)piperidin-1-yl)prop-2-en-1-one]
< 1	C=CC(=O)N1CCCC(Nc2nc(N)ncc2-c2ccc(Oc3ccccc3)cc2)C1 (stereo not shown) [A150, 1-(3-((2-amino-5-(4-phenoxyphenyl)pyrimidin-4-yl)amino)piperidin-1-yl)prop-2-en-1-one]
> 1	C=CC(=O)Nc1ccc(Oc2ccncc2-c2ccc(Oc3ccccc3)cc2)cc1 [A297, N-(4-((3-(4-phenoxyphenyl)pyridin-4-yl)oxy)phenyl)acrylamide]

Compound	IC50 [µM]
Nc1ncnc(NCC2CCN(C(=O)C(O)CO)CC2)c1-c1ccc(Oc2ccccc2)cc1 (stereo not shown) [A56, 1-(4-(((6-amino-5-(4-phenoxyphenyl)pyrimidin-4-yl)amino)methyl)piperidin-1-yl)-2,3-dihydroxypropan-1-one]	> 1
C=CC(=O)N1C2CCC1CC(CNc1ncnc(N)c1-c1ccc(Oc3ccc(C#N)cc3)cc1)C2 (stereo not shown) [A208, 4-(4-(4-(((8-acryloyl-8-azabicyclo[3.2.1]octan-3-yl)methyl)amino)-6-aminopyrimidin-5-yl)phenoxy)benzonitrile]	> 1
